This note sets out measurements from the supplement of paper PMC11061612.

Holding throughout (test): Bliss excess, mean over the matrix (fraction); higher = more synergy
In assay [1] the test system is NCI-H2066 (Squamous Cell Lung Carcinoma). A digest of the protocol:
(§1)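 After 24 hours at 37°C and 5% CO2 in 1536-well plates, cells in DMEM/F12 or RPMI plus 10% FBS received two-drug dose matrices for 72 hours. Viability came from CellTiter-Glo 2.0 luminescence and was scaled as inhibition, anchored at 0 by vehicle wells and at 1 by blank wells. Combination Emax is taken as the second-highest inhibition in the matrix, and Bliss excess as the observed combination effect less EA + EB − EA·EB, with EA and EB the single-agent effects.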

In assay [2] the test system is TT2609-C02 (Thyroid Gland Carcinoma). The method, boiled down: as §1
For assay [3], the system named is ARH-77 (Non-Cancerous). A digest of the protocol:
as §1

Assay [4] has as its system IGR-37 (Melanoma). The method, boiled down:
as §1

In assay [5] the test system is SK-MG-1 (Low Grade Glioma). A digest of the protocol:
as §1

Assay [6] has as its system GI-ME-N (Neuroblastoma). A digest of the protocol:
as §1

Assay [7] concerns A3-KAW (B-Cell Non-Hodgkin's Lymphoma). The method, boiled down:
as §1

Assay [8] deals with CAL-29 (Bladder Carcinoma). The method, boiled down: as §1
Assay [9] relates to A498 (Kidney Carcinoma). The method, boiled down:
as §1

In assay [10] the test system is SK-MES-1 (Squamous Cell Lung Carcinoma). A digest of the protocol: as §1
The test system of assay [11] is LN-405 (Glioblastoma). The method, boiled down: as §1
The test system of assay [12] is TT (Thyroid Gland Carcinoma). A digest of the protocol:
as §1

For assay [13], the system named is JSC-1 (B-Cell Non-Hodgkin's Lymphoma). The method, boiled down:
as §1

In assay [14] the test system is HCC1954 (Breast Carcinoma). A digest of the protocol: as §1
The subject of assay [15] is A549 (Lung Adenocarcinoma). The method, boiled down:
as §1

Assay [16] has as its system VCaP (Prostate Carcinoma). The method, boiled down:
as §1

Assay [17] concerns PANC-10-05 (Pancreatic Carcinoma). A digest of the protocol:
as §1

Assay [18] relates to 8-MG-BA (Glioblastoma). The method, boiled down:
as §1

Assay [19] concerns NCI-H64 (Small Cell Lung Carcinoma). A digest of the protocol:
as §1

For assay [20], the system named is NCI-H2591 (Mesothelioma). A digest of the protocol: as §1

Molecules are shown by their SMILES.

In the case of `CCN(CCO)CCCOc1ccc2c(Nc3cc(CC(=O)Nc4cccc(F)c4)[nH]n3)ncnc2c1` [AZD2811] + C=CCn1c(=O)c2cnc(Nc3ccc(N4CCN(C)CC4)cc3)nc2n1-c1cccc(C(C)(C)O)n1 [AZD1775] (first compound max 1 µM, partner max 1 µM), the Bliss excess was -0.0589 in assay [1]; -0.0295 in assay [2]; 0.024 in assay [3]; -0.023 in [4]; -0.0121 in assay [5]; -0.0112 in assay [6]. Besides, the Bliss excess in assay [7] is 0.0539; in assay [8], 0.0208; in [9], -0.0494; in [10] it was -0.0112; in assay [11], -0.0312; in [12] it was -0.0155. The Bliss excess in [13] is -0.0038; in [14], -0.0269; in assay [15] it was 0.015; in assay [16], -0.0369; in assay [17] it was -0.021; in assay [18], 0.0299. Further, the values for the Bliss excess in assay [19] and in assay [20] were -0.0413 and 0.0107, respectively.

`CCN(CCO)CCCOc1ccc2c(Nc3cc(CC(=O)Nc4cccc(F)c4)[nH]n3)ncnc2c1` [AZD2811] + C[C@@H]1COCCN1C2=NC(=NC(=C2)C3(CC3)[S@](=N)(=O)C)C4=C5C=CNC5=NC=C4 [AZD6738] (first compound max 1 µM, 7x7, partner max 10 µM): the Bliss excess was -0.0114 in assay [1]; -0.0361 in assay [2]; 0.0254 in assay [3]; -0.0366 in assay [4]; -0.0271 in assay [5]; -0.0437 in assay [6]. The Bliss excess in [7] is -0.0417; in assay [8], -0.0023; in assay [9], -0.0832; in assay [10], -0.0484; in [11] it was -0.0386; in assay [12] it was -0.0905. Further, the Bliss excess in assay [13] is -0.0495; in assay [14], -0.0263; in [15], -0.106; in assay [16] it was -0.0864; in [17], -0.0793; in assay [18] it was -0.0212. Also, the Bliss excess was -0.075 in [19] and -0.0338 in [20].

In the case of `CCN(CCO)CCCOc1ccc2c(Nc3cc(CC(=O)Nc4cccc(F)c4)[nH]n3)ncnc2c1` [AZD2811] + O=C(c1cc(Cc2n[nH]c(=O)c3ccccc23)ccc1F)N1CCN(C(=O)C2CC2)CC1 [Olaparib] (first compound max 1 µM, 7x7, partner max 10 µM), the Bliss excess in assay [1] was -0.022; in [2], 0.0022; in assay [3], 0.0114; in assay [4], -0.0353; in assay [5], 0.0331; in [6], -0.0233. Moreover, the Bliss excess was 0.0053 in assay [7]; 0.0378 in [8]; -0.0656 in assay [9]; -0.0127 in assay [10]; -0.0224 in assay [11]; -0.0596 in assay [12]. Also, the Bliss excess is 0.0145 in [13]; -0.0023 in assay [14]; -0.0061 in assay [15]; 0.0014 in [16]; -0.0468 in assay [17]; 0.0327 in assay [18]. For the same compound, the Bliss excess in assay [19] was 0.0589; in assay [20], -0.0332.

For `COc1nnc2ccc(N3CCC(c4ccc(OCCN5CCN(C)C(=O)[C@H]5C)cc4)CC3)nn12` [AZD5153] + CN(CC[C@H](CSC1=CC=CC=C1)NC2=C(C=C(C=C2)S(=O)(=O)NC(=O)C3=CC=C(C=C3)N4CCC(CC4)[C@H](C5=CC=CC=C5C6=CC=C(C=C6)Cl)O)S(=O)(=O)C(F)(F)F)CCO [AZD4320] (first compound max 1 µM, 7x7, partner max 1 µM), the Bliss excess in assay [2] was 0.0257; in assay [3], -0.019; in assay [5] it was 0.0462; in assay [6], 0.0077; in [7], -0.0232; in assay [8], -0.0125. Further, the Bliss excess in [9] was 0.0103; in assay [10], 0.0704; in [11], 0.0448; in [13] it was -0.0243; in [14], -0.0119; in assay [15], -0.0236. Further, the results for the Bliss excess in assay [18] and in [20] were 0.002 and 0.0088, respectively.

As to `Cc1c2c(nn1C)CSCc1cc(n(C)n1)CSc1cc(c3ccccc3c1)OCCCc1c(C(=O)O)n(C)c3c-2c(Cl)ccc13` [AZD5991] + C1CN(CCC1(C(=O)N[C@@H](CCO)C2=CC=C(C=C2)Cl)N)C3=NC=NC4=C3C=CN4 [Capivasertib] (first compound max 1 µM, 7x7, partner max 3 µM), the Bliss excess in [1] is -0.0197; in [2] it was -0.019; in assay [3] it was -0.037; in assay [5], 0.0354; in [6], -0.0245; in assay [7], 0.0236. Also, the Bliss excess in [8] was -0.0211; in assay [9] it was -0.0091; in assay [10], 0.0568; in assay [11], 0.0158; in assay [12], -0.0499; in [13] it was -0.0085. In addition, the Bliss excess is 0.0559 in [14]; -0.0312 in assay [15]; 0.0545 in assay [16]; 0.0422 in assay [17]; 0.0821 in [18]; -0.0261 in assay [19]. For the same compound, the Bliss excess in assay [20] was -0.0306.

Regarding `CC(=O)c1c(C)c2cnc(Nc3ccc(N4CCNCC4)cn3)nc2n(C2CCCC2)c1=O` [Palbociclib] + CN(CC[C@H](CSC1=CC=CC=C1)NC2=C(C=C(C=C2)S(=O)(=O)NC(=O)C3=CC=C(C=C3)N4CCC(CC4)[C@H](C5=CC=CC=C5C6=CC=C(C=C6)Cl)O)S(=O)(=O)C(F)(F)F)CCO [AZD4320] (first compound max 10 µM, 7x7, partner max 1 µM), the Bliss excess in assay [2] was -0.0615; in assay [3], -0.0498; in assay [5] it was -0.078; in [6], -0.0771; in assay [7], 0.0082; in [8], -0.0702. In addition, the Bliss excess in [9] was -0.134; in assay [10], -0.0549; in assay [11], -0.0276; in assay [13] it was -0.0418; in [14], -0.0722; in assay [15], -0.0929. Further, the Bliss excess was -0.001 in [18] and -0.0845 in [20].

As for `CCc1c2c(nc3ccc(O)cc13)-c1cc3c(c(=O)n1C2)COC(=O)[C@]3(O)CC` [SN-38] + O=C(c1cc(Cc2n[nH]c(=O)c3ccccc23)ccc1F)N1CCN(C(=O)C2CC2)CC1 [Olaparib] (first compound max 0.3 µM, 7x7, partner max 10 µM), the Bliss excess was -0.0477 in assay [1]; 0.0446 in assay [3]; 0.0226 in assay [4]; 0.0512 in assay [5]; 0.0672 in assay [6]; 0.036 in assay [9]. In addition, the Bliss excess in assay [11] is -0.0524; in [12] it was 0.0545; in assay [13] it was -0.0044; in assay [15] it was 0.0064; in [16] it was 0.104; in [17], 0.0059. Moreover, the Bliss excess in assay [18] was 0.0671; in assay [19] it was 0.101; in assay [20], -0.0219.

Consider `C[C@@H](c1ccc2nccn2c1)n1nnc2ncc(-c3cnn(C)c3)nc21` [Savolitinib] + CN(CC[C@H](CSC1=CC=CC=C1)NC2=C(C=C(C=C2)S(=O)(=O)NC(=O)C3=CC=C(C=C3)N4CCC(CC4)[C@H](C5=CC=CC=C5C6=CC=C(C=C6)Cl)O)S(=O)(=O)C(F)(F)F)CCO [AZD4320] (first compound max 1 µM, 7x7, partner max 1 µM), for which the Bliss excess in assay [2] is -0.103; in assay [3], -0.0322; in assay [5], -0.0651; in assay [6] it was -0.0699; in assay [7], -0.0158; in [8], -0.0647. The Bliss excess was -0.0589 in assay [9]; -0.0188 in [10]; -0.0518 in assay [11]; -0.0221 in assay [13]; -0.0198 in assay [14]; -0.0576 in [15]. In addition, the results for the Bliss excess in [18] and in [20] were -0.0399 and -0.0714, respectively.
